Consider two compounds from patent US20170290915A1, “METHODS FOR DELIVERING AN ANTI-CANCER AGENT TO A TUMOR” (priority 2010, published 2017).

One series concerns the target T1, αvβ3 integrins (Homo sapiens, UniProt P05106+P06756).
T1 construct: endogenous in cells; host or cells: HUVEC
The experiment in a line: Competitive inhibition of RGDfK-GNR binding with echistatin. Format: cell-based. Particulars: echistatin 50 nM co-incubation; HUVECs; 4° C. for 2 hours; binding buffer. The procedure: Confirmation of RGDfK-GNR specificity to αvβ3 integrins was performed by competitive inhibition of binding with echistatin. In brief, HUVEC cells were grown to 50% confluency on fibronectin coated cover slips. The media was then removed and replaced with cold binding buffer (20 mmol/L Tris, pH 7.4, 150 mmol/L NaCl, 2 mmol/L CaCl2, 1 mmol/L MgCl2, 1 mmol/L MnCl2, 0.1% bovine serum albumin) containing RGDfK-GNRs (10 μg/ml) and HUVECs were co-incubated at 4° C. for 2 hours with or without 50 nM echistatin (Sigma-Aldrich). Cells were then washed three times with cold binding buffer, mounted to a slide and imaged by high-resolution dark field microscopy.

Series [1] in a line: Evans blue dye (EBD) delivery to tumor, thermal enhancement ratio (TER). The format is in vivo, mice. How it is done:
Mouse sarcoma S-180 cells were propagated by intraperitoneal injection (5×10^6 S-180 cells in 1 ml phosphate buffered saline (PBS)) in female CD-1 mice (4-6 weeks old) and allowed to grow until 15% weight gain was observed. Animals were then euthanized by CO2 gas inhalation and the cells were harvested from the abdominal cavity. The cells were then washed to remove blood, diluted and subcutaneously injected into each flank of the animal (2×10^6 cells/flank in 200 μl PBS) while anesthetized with isofluorane. Tumors were then allowed to grow until average tumor volume reached 50-100 mm^3 (usually 7-10 days).
The animals were separated randomly into groups. Half received 200 μl of GNRs (9.6 mg/kg, OD=120) and the other half saline by intravenous injection through the tail vein. After 24 hours, enough time for the GNRs to accumulate in the tumor at 1.22% injected dosed based on previous experiments and other reports in the literature (Dickerson et al., 2008), the animals were anesthetized and the areas around the tumors were shaved and swabbed with 50% propylene glycol to enhance laser penetration depth. After 20 minutes EBD (10 mg/kg in 200 μl saline) was injected intravenously and a 33 gauge needle thermocouple (Omega #HYPO-33-1-T-G-60-SMPW-M) was inserted into the center of the tumor to monitor tumor temperatures. After roughly 10 seconds that temperature data was collected, an 808 nm fiber coupled laser diode (Oclaro #BMU6-808-02-R01) with collimating lens (Thorlabs #F810SMA-780, spot size=7 mm) was directed over the right tumor and radiated. Two different laser powers were used in this study (1.6 and 1.2 W/cm^2) such that one group received severe and the other moderate tumor hyperthermia. After 10 minutes of radiation, the laser was turned off and tumors were allowed to cool for two minutes before removal of the temperature probe.
After the animals were allowed to rest for 5 hours, enough time for the EBD to be cleared from the blood, the animals were sacrificed by CO2 inhalation. Both tumors were collected, weighed and the EBD was extracted in 1.5 ml of formamide for 48 hrs at 60° C. The EBD content was then measured spectrophotometrically at 620 nm and divided by the weight of the tumor. The extravasation of EBD was then calculated as a ratio of the right (treated) to left (untreated) tumor and expressed as a thermal enhancement ratio (TER).

Values joined by “and” are separate entries in the source; they are usually repeats but may differ in a detail not shown here. Identical values can stand only once.

Take echistatin: the “Inhibition of RGDfK-GNR binding to the cell's surface” value on αvβ3 integrins is “almost complete inhibition”.
`Cc1cc(-c2ccc(/N=N/c3ccc4c(S(=O)(=O)[O-])cc(S(=O)(=O)[O-])c(N)c4c3O)c(C)c2)ccc1/N=N/c1ccc2c(S(=O)(=O)[O-])cc(S(=O)(=O)[O-])c(N)c2c1O.[Na+].[Na+].[Na+].[Na+]` [EBD, Evans blue dye]: the “TER (EBD in treated/untreated tumor)” value was 0.94 ± 0.25 in series [1] (Laser alone (no GNRs), 1.2 W/cm^2); 1.05 ± 0.15 in series [1] (Laser alone (no GNRs), 1.6 W/cm^2); 1.68 and 1.68 ± 0.65 in series [1] (PPTT (GNRs + laser), 1.2 W/cm^2); 1.82 and 1.82 ± 0.40 in series [1] (PPTT (GNRs + laser), 1.6 W/cm^2, EBD 10 mg/kg i.v., 5 hours). In addition, in series [1] (laser treatment without the presence of GNRs (power not specified)), the TER entry is reported as “around 1.0”.
